One test addresses recombinant human Nav1.7 (Homo sapiens (Human), UniProt Q15858). The experiment in a line: FRET-based membrane potential assay, recombinant human sodium channel Nav1.7. Type of test: cell-based. The following applies: FRET-Membrane Potential Nav1.7 IC50. Here is the method:
FRET-Based Membrane Potential Assays.
Recombinant, Human Sodium Channel, Nav1.7.
On the day of the assay, medium was removed by aspiration, and cells were washed with assay buffer [HBSS (Invitrogen, Carlsbad, Calif.) containing 20 mM HEPES (Invitrogen, Carlsbad, Calif.)]. […] Cells were incubated for 40 minutes at room temperature in the dark. […] The cells were incubated for 90 minutes at room temperature in the dark. Fluorescence readings were made using a FLIPR®^TETRA (Molecular Devices, Sunnyvale Calif.) equipped with voltage-sensor probe optics. At the start of each experiment the optimal (EC80) concentration of depolarizing agent (veratridine) was determined by testing a dilution curve of assay buffer containing veratridine (Sigma-Aldrich, St. Louis, Mo.) and 1 mg/mL scorpion venom (SVqq, from Leiurus quinquestriatus; Sigma-Aldrich, St. Louis, Mo.). […] Test compounds in the daughter plate were diluted to (˜3×) solutions in assay buffer immediately before assaying. Using the FLIPR®^TETRA, 20 μL of the (3×) compound solutions were first added to the cells, then 20 μL of depolarizing solution (3×EC80 veratridine+SVqq) were added 3 minutes later to activate the channel. […] IC50 values were calculated from curve fits of the ratio data using a four-parameter logistic Hill equation (Accelrys Assay Explorer 3.3 Client, Accelrys, San Diego, Calif.) with percent inhibition plotted against compound concentration.
Sequence of recombinant human Nav1.7 (Q15858 whole entry): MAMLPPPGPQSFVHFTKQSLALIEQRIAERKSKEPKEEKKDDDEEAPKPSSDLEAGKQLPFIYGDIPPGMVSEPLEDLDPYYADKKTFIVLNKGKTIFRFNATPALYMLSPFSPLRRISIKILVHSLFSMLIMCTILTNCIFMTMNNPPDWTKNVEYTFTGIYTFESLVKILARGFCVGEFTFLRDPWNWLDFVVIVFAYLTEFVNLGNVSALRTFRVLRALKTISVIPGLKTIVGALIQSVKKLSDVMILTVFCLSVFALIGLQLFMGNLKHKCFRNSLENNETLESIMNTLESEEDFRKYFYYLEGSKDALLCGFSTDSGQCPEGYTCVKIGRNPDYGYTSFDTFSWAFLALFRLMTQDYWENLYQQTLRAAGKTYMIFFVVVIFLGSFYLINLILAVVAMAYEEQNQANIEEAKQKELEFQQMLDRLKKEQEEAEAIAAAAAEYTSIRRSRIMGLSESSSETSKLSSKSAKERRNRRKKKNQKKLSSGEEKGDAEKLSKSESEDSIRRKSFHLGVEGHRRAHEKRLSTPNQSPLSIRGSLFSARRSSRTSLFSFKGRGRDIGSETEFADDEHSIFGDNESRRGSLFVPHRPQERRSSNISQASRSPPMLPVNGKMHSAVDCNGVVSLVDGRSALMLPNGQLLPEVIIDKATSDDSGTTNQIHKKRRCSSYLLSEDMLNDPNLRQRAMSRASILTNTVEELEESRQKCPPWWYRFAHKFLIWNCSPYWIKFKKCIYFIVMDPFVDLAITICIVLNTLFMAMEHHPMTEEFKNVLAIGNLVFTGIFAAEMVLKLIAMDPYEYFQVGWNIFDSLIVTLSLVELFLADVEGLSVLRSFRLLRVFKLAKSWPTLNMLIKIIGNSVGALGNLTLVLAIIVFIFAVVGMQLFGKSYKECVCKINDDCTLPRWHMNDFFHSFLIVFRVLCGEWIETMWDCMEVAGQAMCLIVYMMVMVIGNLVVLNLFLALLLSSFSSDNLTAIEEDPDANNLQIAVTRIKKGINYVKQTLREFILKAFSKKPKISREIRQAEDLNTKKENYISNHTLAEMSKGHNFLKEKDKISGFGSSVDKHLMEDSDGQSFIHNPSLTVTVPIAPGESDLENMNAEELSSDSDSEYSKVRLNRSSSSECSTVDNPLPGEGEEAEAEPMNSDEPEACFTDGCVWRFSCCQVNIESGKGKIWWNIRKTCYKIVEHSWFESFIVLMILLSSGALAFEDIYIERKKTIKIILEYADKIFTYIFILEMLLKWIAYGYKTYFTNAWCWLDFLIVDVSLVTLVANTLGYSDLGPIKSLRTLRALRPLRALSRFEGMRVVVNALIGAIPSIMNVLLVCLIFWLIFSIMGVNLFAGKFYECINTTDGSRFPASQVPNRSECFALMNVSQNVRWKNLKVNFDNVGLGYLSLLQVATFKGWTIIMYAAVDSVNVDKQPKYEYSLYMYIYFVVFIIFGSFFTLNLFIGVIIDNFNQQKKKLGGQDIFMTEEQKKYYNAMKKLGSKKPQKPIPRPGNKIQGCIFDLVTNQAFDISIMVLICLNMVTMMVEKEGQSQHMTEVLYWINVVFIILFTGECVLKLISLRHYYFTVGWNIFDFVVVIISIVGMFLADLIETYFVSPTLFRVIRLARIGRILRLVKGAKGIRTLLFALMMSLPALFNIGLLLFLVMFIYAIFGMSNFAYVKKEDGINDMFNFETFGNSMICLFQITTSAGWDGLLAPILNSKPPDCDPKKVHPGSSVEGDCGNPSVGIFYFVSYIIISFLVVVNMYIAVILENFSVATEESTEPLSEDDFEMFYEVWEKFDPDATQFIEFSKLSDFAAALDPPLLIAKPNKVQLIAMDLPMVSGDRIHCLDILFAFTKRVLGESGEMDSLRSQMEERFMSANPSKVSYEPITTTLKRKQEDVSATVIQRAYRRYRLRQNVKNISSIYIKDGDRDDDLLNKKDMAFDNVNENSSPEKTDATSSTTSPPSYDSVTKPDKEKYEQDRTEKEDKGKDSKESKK
Take `O=C(c1ccc2cc(Oc3ccc(C(F)(F)F)cn3)ccc2n1)N1CC[C@H](O)[C@H](F)C1` (relative stereo) [Example 191, [cis-3-fluoro-4-hydroxypiperidin-1-yl](6-{[5-(trifluoromethyl)pyridin-2-yl]oxy}quinolin-2-yl)methanone]: the IC50 is > 20 µM.
For `O=C(c1ccc2cc(Oc3ccc(C(F)(F)F)cn3)ccc2n1)N1CC[C@@H](O)[C@H](F)C1` (relative stereo) [Example 195, [trans-3-fluoro-4-hydroxypiperidin-1-yl](6-{[5-(trifluoromethyl)pyridin-2-yl]oxy}quinolin-2-yl)methanone], the 50% inhibitory concentration (IC50) worked out at 7.6 µM.

Staying with this test, now noted: HEK293 cells stably expressing recombinant human Nav1.7; veratridine + scorpion venom depolarization; read-out: FRET-Membrane Potential Nav1.7 IC50.
With “1,4-diazepan-1-yl(6-{[5-(trifluoromethyl)pyridin-2-yl]oxy}quinolin-2-yl)methanone [Example 219]”, the IC50 amounted to 2.56 µM.
For `CC1[C@@H](O)[C@@H](O)C(C)N1C(=O)c1ccc2cc(Oc3ccc(C(F)(F)F)cn3)ccc2n1` (mixture of isomers) [Example 323, rac-[(3R,4S)-3,4-dihydroxy-2,5-dimethylpyrrolidin-1-yl](6-{[5-(trifluoromethyl)pyridin-2-yl]oxy}quinolin-2-yl)methanone], the concentration for half-maximal inhibition (IC50) is > 20 µM.
Still for that read-out and setting: in the case of `O=C(c1ccc2cc(Oc3ccc(C(F)(F)F)cn3)ccc2n1)N1CC[C@H](F)[C@H](O)C1` (relative stereo) [Example 192, [cis-4-fluoro-3-hydroxypiperidin-1-yl](6-{[5-(trifluoromethyl)pyridin-2-yl]oxy}quinolin-2-yl)methanone] it was 17.7 µM.
Still for that read-out and setting: then `O=C(c1ccc2cc(Oc3ccc(C(F)(F)F)cn3)ccc2n1)N1CC[C@@H](F)[C@H](O)C1` (relative stereo) [Example 196, [trans-4-fluoro-3-hydroxypiperidin-1-yl](6-{[5-(trifluoromethyl)pyridin-2-yl]oxy}quinolin-2-yl)methanone], with 4.93 µM.
As to `O=C(c1ccc2cc(Oc3ccc(C(F)(F)F)cn3)ccc2n1)N1C[C@@H](O)[C@H](O)C1` (relative stereo) [Example 303, [trans-3,4-dihydroxypyrrolidin-1-yl](6-{[5-(trifluoromethyl)pyridin-2-yl]oxy}quinolin-2-yl)methanone], the 50% inhibitory concentration (IC50) was determined as 5.68 µM.
As to `CO[C@@H]1CN(C(=O)c2ccc3cc(Oc4ccc(C(F)(F)F)cn4)ccc3n2)C[C@H]1O` (relative stereo) [Example 305, [trans-3-hydroxy-4-methoxypyrrolidin-1-yl](6-{[5-(trifluoromethyl)pyridin-2-yl]oxy}quinolin-2-yl)methanone], the IC50 worked out at 13.6 µM.
On the same count and under the same terms, in the case of `C[C@@H]1CN(C(=O)c2ccc3cc(Oc4ccc(C(F)(F)F)cn4)ccc3n2)C[C@H]1O` (relative stereo) [Example 306, [trans-3-hydroxy-4-methylpyrrolidin-1-yl](6-{[5-(trifluoromethyl)pyridin-2-yl]oxy}quinolin-2-yl)methanone] it was 14.8 µM; in that of `O=C(c1ccc2cc(Oc3ccc(C(F)(F)F)cn3)ccc2n1)N1CC[C@H](O)[C@H](O)C1` (relative stereo) [Example 350, [cis-3,4-dihydroxypiperidin-1-yl](6-{[5-(trifluoromethyl)pyridin-2-yl]oxy}quinolin-2-yl)methanone], > 20 µM; in that of `CS(=O)(=O)[C@@H]1CN(C(=O)c2ccc3cc(Oc4ccc(C(F)(F)F)cn4)ccc3n2)C[C@H]1O` (relative stereo) [Example 351, [trans-3-hydroxy-4-(methylsulfonyl)pyrrolidin-1-yl](6-{[5-(trifluoromethyl)pyridin-2-yl]oxy}quinolin-2-yl)methanone], 3.6 µM.
On the same count and under the same terms, in the case of `COCO[C@H]1CN(C(=O)c2ccc3cc(Oc4ccc(C(F)(F)F)cn4)ccc3n2)C[C@H]1O` (relative stereo) [Example 368, [cis-3-hydroxy-4-(methoxymethoxy)pyrrolidin-1-yl](6-{[5-(trifluoromethyl)pyridin-2-yl]oxy}quinolin-2-yl)methanone] it was 1.25 µM; in that of `O=C(NCC(O)C(F)(F)F)c1ccc2cc(Oc3ccc(C(F)(F)F)cn3)ccc2n1` (stereo not shown) [Example 75, N-(3,3,3-trifluoro-2-hydroxypropyl)-6-{[5-(trifluoromethyl)pyridin-2-yl]oxy}quinoline-2-carboxamide], 0.944 µM; in that of `O=C(c1ccc2cc(Oc3ccccn3)ccc2n1)N1CCOCC1` [Example 76, morpholin-4-yl[6-(pyridin-2-yloxy)quinolin-2-yl]methanone], > 20 µM.
The same measure, in the same setting: then `CN1CCN(C(=O)c2ccc3cc(Oc4ccccn4)ccc3n2)CC1` [Example 77, (4-methylpiperazin-1-yl)[6-(pyridin-2-yloxy)quinolin-2-yl]methanone], with > 20 µM; and `CN1CCN(C(=O)c2ccc3cc(Oc4ccc(C#N)cc4)ccc3n2)CC1` [Example 81, 4-({2[(4-methylpiperazin-1-yl)carbonyl]quinolin-6-yl}oxy)benzonitrile], with 1.87 µM.
Turning to `N#Cc1ccc(Oc2ccc3nc(C(=O)N4CCOCC4)ccc3c2)cc1` [Example 83, 4-{[2-(morpholin-4-ylcarbonyl)quinolin-6-yl]oxy}benzonitrile], the IC50 was > 20 µM.
On to `N#Cc1ccc(Oc2ccc3nc(C(=O)NCCCN4CCOCC4)ccc3c2)cc1` [Example 87, 6-(4-cyanophenoxy)-N-[3-(morpholin-4-yl)propyl]quinoline-2-carboxamide], for which the IC50 was 1.23 µM.
Still for that read-out and setting: in the case of `N#Cc1ccc(Oc2ccc3nc(C(=O)Nc4nccs4)ccc3c2)cc1` [Example 88, 6-(4-cyanophenoxy)-N-(1,3-thiazol-2-yl)quinoline-2-carboxamide] it was > 20 µM.
Regarding `N#Cc1ccc(Oc2ccc3nc(C(=O)NCc4cccnc4)ccc3c2)cc1` [Example 89, 6-(4-cyanophenoxy)-N-(pyridin-3-ylmethyl)quinoline-2-carboxamide], the IC50 turned out to be 1.52 µM.
For the compound `N#Cc1ccc(Oc2ccc3nc(C(=O)N[C@H]4CCOC4=O)ccc3c2)cc1` [Example 90, 6-(4-cyanophenoxy)-N-[(3S)-2-oxotetrahydrofuran-3-yl]quinoline-2-carboxamide], the 50% inhibitory concentration (IC50) is 0.368 µM.
Turning to `CC(C)[C@H](CO)NC(=O)c1ccc2cc(Oc3ccc(C#N)cc3)ccc2n1` [Example 91, 6-(4-cyanophenoxy)-N-[(2R)-1-hydroxy-3-methylbutan-2-yl]quinoline-2-carboxamide], the half-maximal inhibitory concentration (IC50) was 3.25 µM.
Same read-out and setting: then `N#Cc1ccc(Oc2ccc3nc(C(=O)NCc4cccs4)ccc3c2)cc1` [Example 92, 6-(4-cyanophenoxy)-N-(2-thienylmethyl)quinoline-2-carboxamide], with 9.83 µM; and `N#Cc1ccc(Oc2ccc3nc(C(=O)NCCc4cccs4)ccc3c2)cc1` [Example 93, 6-(4-cyanophenoxy)-N-[2-(2-thienyl)ethyl]quinoline-2-carboxamide], with 1.55 µM; and `N#Cc1ccc(Oc2ccc3nc(C(=O)NCc4ccco4)ccc3c2)cc1` [Example 94, 6-(4-cyanophenoxy)-N-(2-furylmethyl)quinoline-2-carboxamide], with 5.25 µM.
On the same count and under the same terms, in the case of `CC(C)C(CO)NC(=O)c1ccc2cc(Oc3ccc(C#N)cc3)ccc2n1` (stereo not shown) [Example 95, 6-(4-cyanophenoxy)-N-(1-hydroxy-3-methylbutan-2-yl)quinoline-2-carboxamide] it was 4.87 µM; in that of `N#Cc1ccc(Oc2ccc3nc(C(=O)NCCN4CCCC4)ccc3c2)cc1` [Example 96, 6-(4-cyanophenoxy)-N-[2-(pyrrolidin-1-yl)ethyl]quinoline-2-carboxamide], 0.329 µM.

The same test, now with this note: read-out: FRET-Membrane Potential Nav1.7 IC50.
For the compound `Cc1noc(C2CCCN(C(=O)c3ccc4cc(Oc5ccccn5)ccc4n3)C2)n1` (stereo not shown) [Example 78, [3-(3-methyl-1,2,4-oxadiazol-5-yl)piperidin-1-yl][6-(pyridin-2-yloxy)quinolin-2-yl]methanone], the half-maximal inhibitory concentration (IC50) is > 20 µM.
Still for that read-out and setting: in the case of `O=C(NCCN1CCCCC1)c1ccc2cc(Oc3ccccn3)ccc2n1` [Example 79, N-[2-(piperidin-1-yl)ethyl]-6-(pyridin-2-yloxy)quinoline-2-carboxamide] it was > 20 µM.
The same measure, in the same setting: in the case of `O=C(Nc1ncns1)c1ccc2cc(Oc3ccccn3)ccc2n1` [Example 80, 6-(pyridin-2-yloxy)-N-(1,2,4-thiadiazol-5-yl)quinoline-2-carboxamide] it was > 20 µM.
Same read-out and setting: then `N#Cc1ccc(Oc2ccc3nc(C(=O)NCCN4CCCCC4)ccc3c2)cc1` [Example 82, 6-(4-cyanophenoxy)-N-[2-(piperidin-1-yl)ethyl]quinoline-2-carboxamide], with 0.222 µM.
For the compound `N#Cc1ccc(Oc2ccc3nc(C(=O)Nc4ccc5cn[nH]c5c4)ccc3c2)cc1` [Example 84, 6-(4-cyanophenoxy)-N-(1H-indazol-6-yl)quinoline-2-carboxamide], the IC50 is > 20 µM.
On the same count and under the same terms, in the case of `CN(C)CCCNC(=O)c1ccc2cc(Oc3ccc(C#N)cc3)ccc2n1` [Example 85, 6-(4-cyanophenoxy)-N-[3-(dimethylamino)propyl]quinoline-2-carboxamide] it was 0.238 µM; in that of `N#Cc1ccc(Oc2ccc3nc(C(=O)NCCN4CCOCC4)ccc3c2)cc1` [Example 86, 6-(4-cyanophenoxy)-N-[2-(morpholin-4-yl)ethyl]quinoline-2-carboxamide], 1.74 µM.

The values above are taken from patent publication US9452986B2, “6-heteroaryloxy- or 6-aryloxy-quinoline-2-carboxamides and method of use” (AbbVie Inc., priority 2014, dated 2016).
